Data as given in publication PMC8398472, “Anticancer Diiron Vinyliminium Complexes: A Structure–Activity Relationship Study” (Pharmaceutics, 2021).
One block for each substance: values may come before it.

Experiments:
[1] = Stability in DMSO-d6/D2O or D2O solution at 37 °C for 72 h (1H NMR); assay type: physicochemical; settings: DMSO-d6/D2O (2:1 v/v), 72 h at 37 °C
Method: • (a) Solubility in D2O. A suspension of the selected diiron compound (3–5 mg) in a D2O solution (ca. 1 mL) containing Me2SO2 (3.36 × 10^−3 M) as internal standard was vigorously stirred at 21 °C for 1.5 h. The resulting saturated solution was filtered over celite, transferred into an NMR tube and then analyzed by ^1H NMR spectroscopy (delay time = 3 s; number of scans = 20). The concentration (solubility) was calculated by the relative integral (related to Cp and/or NMe signals) with respect to Me2SO2 (δ = 3.14 ppm). • (b) Stability in DMSO-d6/D2O solution. The selected diiron compound (ca. 4 mg) was added of 1 mL of D2O (3a,c) or DMSO-d6/D2O (2:1 v/v) mixture (2a,c, 3b, 4a–c, 5a–c, 6a–c, 7), containing Me2SO2 (3.36 × 10^−3 M). The resulting mixture was stirred for 30 min and then filtered over celite; the filtrated solution was transferred into an NMR tube. The sample was analyzed by ^1H NMR (time = 0) and then heated at 37 °C for 72 h. After cooling to room temperature, the solution was separated from a small amount of solid by filtration over celite, and the new ^1H NMR spectrum was recorded (delay time = 3 s; number of scans = 20). In every case, no newly formed organometallic species was detected. The amount of starting material in solution (% with respect to the initial spectrum) was calculated by the relative integral (vs. Cp and/or NMe signals) with respect to Me2SO2 as internal standard.

[2] = tested on: human ovarian carcinoma cisplatin-sensitive A2780; assay: Cytotoxicity, WST-1 cell viability assay, A2780; assay type: cell-based; settings: for IC50: 72 h exposure; for Selectivity index (S.I.): ratio between IC50 for Balb/3T3 and IC50 for A2780
Method: (§1) In vitro cytotoxicity investigations were carried out by using human ovarian carcinoma cisplatin-sensitive A2780 (ECACC93112519), human ovarian carcinoma cisplatin-resistant A2780cisR (ECACC 93112517) and mouse embryo fibroblasts Balb/3T3 clone A31 (ATCC CCL-163) cell lines. A2780 and A2780cisR were purchased from the European Collection of Authenticated Cell Cultures (ECACC), and Balb/3T3 clone A31 cell line from the American Type Culture Collection (ATCC).
(§2) A2780 and A2780cisR cells were routinely cultured in RPMI 1640 (Merck) containing 2 mM of L-glutamine (Merck), 1% of penicillin/streptomycin solution (Merck—10 000 U mL^−1: 10 mg mL^−1), 10% of fetal bovine serum (Merck—FBS) and antimycotic (InvivoGen, USA), and Balb/3T3 clone A31 in Dulbecco’s modified Eagle medium (Merck—DMEM) supplemented with 4 mM of L-glutamine, 1% of penicillin/streptomycin solution, 10% of calf serum (Merck) and antimycotic. […] The cultures were maintained at 37 °C and in a 5% CO2-enriched atmosphere.
(§3) A2780, A2780cisR and Balb/3T3 clone A31 cells were seeded in 96-well tissue culture polystyrene plates at a concentration of 3 × 10^3, 6 × 10^3 and 1 × 10^3 cells per well, respectively. After overnight incubation, the cells were treated with different concentrations (0–100 µM) of the selected compounds for 72 h at 37 °C in a 5% atmosphere of CO2. Stock solutions of compounds were prepared in DMSO and sequentially diluted in medium (final DMSO concentration of 0.5%). […] At the end of the incubation time, cell viability was assessed by means of WST-1 tetrazolium salt reagent (Roche). Briefly, cells were incubated for 4 h with the tetrazolium salt reagent diluted 1:10, at 37 °C and 5% CO2. Measurements of formazan dye absorbance, which directly correlates with the number of viable cells, were carried out with a micro-plate reader (Biorad) at 450 nm, using 655 nm as reference wavelength. The 50% inhibitory concentration (IC50) refers to compound concentration at which 50% of cell death is observed with respect to the control. For each tested compound, assay was performed on triplicate. The concentration effect curves were generated by nonlinear regression curves (GraphPad Prism Software, 2021) and the data reported as mean ± standard deviation.

[3] = tested on: mouse embryo fibroblasts Balb/3T3 clone A31; assay: Cytotoxicity, WST-1 cell viability assay, Balb/3T3 clone A31; assay type: cell-based; settings: 72 h exposure
Method: as §1, §2, §3

cytochrome c (Cyt c) = biological target: T1, cytochrome c (Cyt c) (Equus caballus, UniProt P00004); assay: ESI-MS interaction with cytochrome c; assay type: binding; settings: 24 h at 37 °C, protein-to-metal ratio 1:2, pH 6.8
T1 construct: purchased
Method: • (a) Sample preparation. Cytochrome c (Cyt c) was commercially available and used as received; the TrxR dodecapeptide (TrxR-pept) was synthesized as reported in the literature. The stock solutions of the selected iron-based complexes were prepared in DMSO up to a final concentration of 10^−2 M. The stock solution of TrxR-pept was prepared in LC-MS grade water by dissolving the required amount of lyophilized peptide to reach a final concentration of 10^−3 M. The stock solution of Cyt c 10^−3 M was prepared by dissolving the required amount of protein in 2 mM ammonium acetate solution at pH 6.8. In the interaction tests with TrxR-pept, opportune aliquots of each complex and TrxR-pept stock solutions were mixed and diluted with LC-MS grade water to 10^−4 M final concentration and a TrxR-pept/complex ratio of 1:1. For each iron-based complex/Cyt c pair, appropriate aliquots of the respective stock solutions were mixed and subsequently diluted with 2 mM ammonium acetate solution (pH 6.8) to a final protein concentration of 10^−4 M and a protein-to-metal molar ratio of 1:2. All the sample mixtures were incubated for 24 h at 37 °C. Subsequently, opportune dilutions were performed as detailed: • – the TrxR-pept containing solutions were further diluted with LC-MS grade water to a final TrxR-pept concentration of 10^−5 M and added with 0.1% v/v of formic acid just before infusion in the mass spectrometer; • – the protein-containing solutions were diluted with 2 mM ammonium acetate solution (pH 6.8) to a final protein concentration of 10^−6 M and added with 0.1% v/v of formic acid just before infusion. • (b) ESI-MS instrumental parameters. The ESI mass spectra were acquired using a TripleTOF® 5600^+ high-resolution mass spectrometer (Sciex, Framingham, MA, USA), with a DuoSpray® interface operating with an ESI probe. Respective ESI mass spectra were acquired through direct infusion at 7 μL min^−1 flow rate. The ESI source parameters were optimized for each biomolecule and were as follows: for TrxR dodecapeptide positive polarity, ionspray voltage floating 5500 V, temperature 0, ion source gas 1 (GS1) 35 L min^−1; ion source gas 2 (GS2) 0; curtain gas (CUR) 20 L min^−1, declustering potential (DP) 300 V, collision energy (CE) 10 V, range 1070–1600 m/z; for Cyt c positive polarity, ionspray voltage floating 5500 V, temperature 0, ion source gas 1 (GS1) 35 L min^−1; ion source gas 2 (GS2) 0; curtain gas (CUR) 20 L min^−1, declustering potential (DP) 180 V, collision energy (CE) 10 V, range 500–1800 m/z. For acquisition, Analyst TF software 1.7.1 (Sciex, Framingham, MA, USA) was used and deconvoluted spectra were obtained by using the Bio Tool Kit micro-application v.2.2 embedded in PeakView^TM software v.2.2 (Sciex, Framingham, MA, USA).

T1 sequence (P00004 whole entry): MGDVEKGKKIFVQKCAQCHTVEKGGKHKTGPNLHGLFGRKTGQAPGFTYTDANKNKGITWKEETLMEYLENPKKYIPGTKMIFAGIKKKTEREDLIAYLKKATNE

Substance: [Fe2Cp2(CO)(μ-CO){μ-η^1:η^3-C^3(Me)C^2(Me)C^1NMe(CH2Ph)}]CF3SO3 [Compound 5b]
Stability % (residual % of starting material) [1]: 90%
IC50 [2]: 5.1 ± 0.3 µM
Selectivity index (S.I.) [2]: >19
IC50 [3]: > 100 µM
Interaction with Cyt c (ESI-MS) (cytochrome c (Cyt c)): substantial chemical inertness

Substance: [Fe2Cp2(CO)(μ-CO){μ-η^1:η^3-C^3(Me)C^2(Me)C^1NMe(4-C6H4OMe)}]CF3SO3 [Compound 6c]
Stability % (residual % of starting material) [1]: 86%
IC50 [2]: 3.8 ± 0.4 µM
Selectivity index (S.I.) [2]: >26
IC50 [3]: > 100 µM
Interaction with Cyt c (ESI-MS) (cytochrome c (Cyt c)): substantial chemical inertness

Substance: [Fe2Cp2(CO)(μ-CO){μ-η^1:η^3-C^3(Me)C^2(Me)C^1NMe(2-naphthyl)}]CF3SO3 [Compound 7]
Stability % (residual % of starting material) [1]: 66%
IC50 [2]: 2.2 ± 0.2 µM
Selectivity index (S.I.) [2]: 22
IC50 [3]: 48 ± 3 µM
Interaction with Cyt c (ESI-MS) (cytochrome c (Cyt c)): substantial chemical inertness

Substance: [Fe2Cp2(CO)(μ-CO){μ-η^1:η^3-C^3(Me)C^2(Me)C^1NMe(Cy)}]CF3SO3 [Compound 4c]
Stability % (residual % of starting material) [1]: 95%
IC50 [2]: 1.8 ± 0.2 µM
Selectivity index (S.I.) [2]: 52
IC50 [3]: 94 ± 16 µM
Interaction with Cyt c (ESI-MS) (cytochrome c (Cyt c)): substantial chemical inertness

Substance: [Fe2Cp2(CO)(μ-CO){μ-η^1:η^3-C^3(Me)C^2HC^1NMe(Cy)}]CF3SO3 [Compound 4a]
Stability % (residual % of starting material) [1]: 95%
IC50 [2]: 3.3 ± 0.4 µM
Selectivity index (S.I.) [2]: >30
IC50 [3]: > 100 µM
Interaction with Cyt c (ESI-MS) (cytochrome c (Cyt c)): substantial chemical inertness

Substance: [Fe2Cp2(CO)(μ-CO){μ-η^1:η^3-C^3(Me)C^2(Me)C^1N(CH2Ph)2}]CF3SO3 [Compound 2c]
Stability % (residual % of starting material) [1]: 87%
IC50 [2]: 1.91 ± 0.15 µM
Selectivity index (S.I.) [2]: 9
IC50 [3]: 18 ± 3 µM
Interaction with Cyt c (ESI-MS) (cytochrome c (Cyt c)): substantial chemical inertness

Second part, led by results:

Stability % (residual % of starting material) [1]: 76%
Interaction with Cyt c (ESI-MS) (cytochrome c (Cyt c)): substantial chemical inertness
Substance: [Fe2Cp2(CO)(μ-CO){μ-η^1:η^3-C^3(Ph)C^2HC^1NMe(4-C6H4OMe)}]CF3SO3 [Compound 6b]
IC50 [2]: 3.8 ± 0.4 µM
Selectivity index (S.I.) [2]: 10
IC50 [3]: 39 ± 3 µM

Stability % (residual % of starting material) [1]: 68%
Interaction with Cyt c (ESI-MS) (cytochrome c (Cyt c)): substantial chemical inertness
Substance: [Fe2Cp2(CO)(μ-CO){μ-η^1:η^3-C^3(Ph)C^2HC^1NMe(CH2CH = CH2)}]CF3SO3 [Compound 3b]
IC50 [2]: 6 ± 0.8 µM
Selectivity index (S.I.) [2]: >16
IC50 [3]: > 100 µM
